According to patent US20240059703A1 (AMGEN INC., priority 2021, published 2024):

target: KRAS G12C (Homo sapiens (Human), UniProt P01116, C118A/G12C); assay: 2 h coupled exchange assay; assay type: biochemical; conditions: Avg 2 h Coupled exchange IC50, 2 h compound pre-incubation
Method: The term “2 h coupled exchange assay” or “20 h coupled exchange assay” as used herein refers to the assay described in the Section entitled “BIOLOGICAL EVALUATION.”

KRAS G12C, sequence (P01116 other isoform, or with tags, fused parts or gaps G12C/C118A): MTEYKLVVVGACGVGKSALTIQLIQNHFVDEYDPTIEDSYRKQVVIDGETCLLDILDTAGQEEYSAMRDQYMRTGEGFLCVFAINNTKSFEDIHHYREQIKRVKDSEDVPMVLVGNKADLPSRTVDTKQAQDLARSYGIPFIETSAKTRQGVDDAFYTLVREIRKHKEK

Row | IC50 [nM] | Compound
1 | 648 | C=CC(=O)N1CC2(CCN(c3nc4cc(-c5cc(C)nn5C)ccc4c(-c4ccccc4Cl)c3C)C2)C1 [Example 16-2, 1-(6-(4-(2-chlorophenyl)-7-(1,3-dimethyl-1H-pyrazol-5-yl)-3-methyl-2-quinolinyl)-2,6-diazaspiro[3.4]octan-2-yl)-2-propen-1-one]
2 | 519 | C=CC(=O)N1CC2(CCN(c3nc4cc(-c5ccnn5C)ccc4c(-c4ccc(F)cc4)c3C)C2)C1 [Example 16-3, 1-(6-(4-(4-fluorophenyl)-3-methyl-7-(1-methyl-1H-pyrazol-5-yl)-2-quinolinyl)-2,6-diazaspiro[3.4]octan-2-yl)-2-propen-1-one]
3 | 644 | C=CC(=O)N1CC2(CCN(c3nc4cc(-c5ccnn5C)ccc4c(-c4ccccc4F)c3C)C2)C1 [Example 16-4, 1-(6-(4-(2-fluorophenyl)-3-methyl-7-(1-methyl-1H-pyrazol-5-yl)-2-quinolinyl)-2,6-diazaspiro[3,4]octan-2-yl)-2-propen-1-one]
4 | 390 | C=CC(=O)N1CC2(CCN(c3nc4cc(-c5ccnn5C)ccc4c(-c4c(O)cccc4Cl)c3C)C2)C1 [Example 16-5, 1-(6-(4-(2-chloro-6-hydroxyphenyl)-3-methyl-7-(1-methyl-1H-pyrazol-5-yl)-2-quinolinyl)-2,6-diazaspiro[3.4]octan-2-yl)-2-propen-1-one]
5 | 716 | C=CC(=O)N1CC2(CCN(c3nc4cc(-c5ccnn5C)ccc4c(-c4cccc(F)c4Cl)c3C)C2)C1 [Example 16-7, 1-(6-(4-(2-chloro-3-fluorophenyl)-3-methyl-7-(1-methyl-1H-pyrazol-5-yl)-2-quinolinyl)-2,6-diazaspiro[3.4]octan-2-yl)-2-propen-1-one]
6 | 702 | C=CC(=O)N1CC2(CCN(c3nc4cc(-c5ccnn5C)ccc4c(-c4c(C)cccc4F)c3C)C2)C1 [Example 16-8, 1-(6-(4-(2-fluoro-6-methylphenyl)-3-methyl-7-(1-methyl-1H-pyrazol-5-yl)-2-quinolinyl)-2,6-diazaspiro[3.4]octan-2-yl)-2-propen-1-one]
7 | 260 | C=CC(=O)N1CC2(CCN(c3nc4cc(-c5ccnn5C)ccc4c(-c4c(O)cccc4F)c3C)C2)C1 [Example 16-10, 1-(6-(4-(2-fluoro-6-hydroxyphenyl)-3-methyl-7-(1-methyl-1H-pyrazol-5-yl)-2-quinolinyl)-2,6-diazaspiro[3,4]octan-2-yl)-2-propen-1-one]
8 | 347 | C=CC(=O)N1CC2(CCN(c3nc4cc(-c5ccnn5C)ccc4c(-c4cc(O)ccc4F)c3C)C2)C1 [Example 16-11, 1-(6-(4-(2-fluoro-5-hydroxyphenyl)-3-methyl-7-(1-methyl-1H-pyrazol-5-yl)-2-quinolinyl)-2,6-diazaspiro[3,4]octan-2-yl)-2-propen-1-one]
9 | 293 | C=CC(=O)N1CC2(CCN(c3nc4cc(-c5ccnn5C)ccc4c(-c4ccccc4Cl)c3C#N)C2C)C1 (stereo not shown) [Example 17-1, 2-(2-acryloyl-5-methyl-2,6-diazaspiro[3.4]octan-6-yl)-4-(2-chlorophenyl)-7-(1-methyl-1H-pyrazol-5-yl)quinoline-3-carbonitrile]

More lines, now with the values behind:

Row | Compound | IC50 [nM]
10 | C=CC(=O)N1CC2(CCN(c3nc4c(c(-c5cc(O)ccc5C)c3C)COC(C)(C)C4)C2)C1 [Example 14-30, 1-(6-(4-(5-hydroxy-2-methylphenyl)-3,7,7-trimethyl-7,8-dihydro-5H-pyrano[4,3-b]pyridin-2-yl)-2,6-diazaspiro[3.4]octan-2-yl)-2-propen-1-one] | 215
11 | [2H]C([2H])([2H])n1ncc2ccc(C)c(-c3c(C)c(N4CCC5(CN(C(=O)C=C)C5)C4)nc4c3COC(C)(C)C4)c21 [Example 14-36, 1-(6-(3,7,7-trimethyl-4-(6-methyl-1-(^2H3)methyl-1H-indazol-7-yl)-7,8-dihydro-5H-pyrano[4,3-b]pyridin-2-yl)-2,6-diazaspiro[3.4]octan-2-yl)-2-propen-1-one] | 226
12 | C=CC(=O)N1CC2(CCN(c3nc4c(c(-c5c(C)ccc6cnn(C)c56)c3C)COC(C)(C)C4)C2)C1 [Example 14-37, 1-(6-(4-(1,6-dimethyl-1H-indazol-7-yl)-3,7,7-trimethyl-7,8-dihydro-5H-pyrano[4,3-b]pyridin-2-yl)-2,6-diazaspiro[3.4]octan-2-yl)-2-propen-1-one] | 478
13 | C=CC(=O)N1CC2(CCN(c3nc4c(c(-c5ccc(F)c(O)c5)c3C#N)C[C@H]3C[C@@H]4C3(C)C)C2)C1 [Example 14-49, (1R,9R)-6-(4-fluoro-3-hydroxyphenyl)-10,10-dimethyl-4-(2-(2-propenoyl)-2,6-diazaspiro[3.4]octan-6-yl)-3-azatricyclo[7.1.1.0^2,7]undeca-2,4,6-triene-5-carbonitrile] | 776
14 | C=CC(=O)N1CC2(CCN(c3nc4c(c(-c5cc(O)ccc5C)c3F)COC(C)(C)C4)C2)C1 [Example 14-53, 1-(6-(3-fluoro-4-(5-hydroxy-2-methylphenyl)-7,7-dimethyl-7,8-dihydro-5H-pyrano[4,3-b]pyridin-2-yl)-2,6-diazaspiro[3.4]octan-2-yl)-2-propen-1-one] | 360
15 | C=CC(=O)N1CC2(CCN(c3nc4c(c(-c5c(C)ccc6cn[nH]c56)c3F)COC(C)(C)C4)C2)C1 [Example 14-54, 1-(6-(3-fluoro-7,7-dimethyl-4-(6-methyl-1H-indazol-7-yl)-7,8-dihydro-5H-pyrano[4,3-b]pyridin-2-yl)-2,6-diazaspiro[3.4]octan-2-yl)-2-propen-1-one] | 349
16 | C=CC(=O)N1CC2(CCN(c3nc4c(c(-c5c(C)c(Cl)cc6cnn(C)c56)c3F)COC(C)(C)C4)C2)C1 [Example 14-55, 1-(6-(4-(5-chloro-1,6-dimethyl-1H-indazol-7-yl)-3-fluoro-7,7-dimethyl-7,8-dihydro-5H-pyrano[4,3-b]pyridin-2-yl)-2,6-diazaspiro[3.4]octan-2-yl)-2-propen-1-one] | 209
17 | C=CC(=O)N1CC2(CCN(c3nc4c(c(-c5cccc6cc(O)ccc56)c3F)COC(C)(C)C4)C2)C1 [Example 14-65, 1-(6-(3-fluoro-4-(6-hydroxy-1-naphthalenyl)-7,7-dimethyl-7,8-dihydro-5H-pyrano[4,3-b]pyridin-2-yl)-2,6-diazaspiro[3.4]octan-2-yl)-2-propen-1-one] | 367
18 | C=CC(=O)N1CC2(CCN(c3nc4c(c(-c5c(C)ccc6cnn(C)c56)c3F)COC(C)(C)C4)C2)C1 [Example 14-71, 1-(6-(4-(1,6-dimethyl-1H-indazol-7-yl)-3-fluoro-7,7-dimethyl-7,8-dihydro-5H-pyrano[4,3-b]pyridin-2-yl)-2,6-diazaspiro[3.4]octan-2-yl)-2-propen-1-one] | 781
19 | C=CC(=O)N1CC2(CCN(c3nc4c(c(-c5c(C)ccc6cnn(C(F)F)c56)c3C#N)COC(C)(C)C4)C2)C1 [Example 14-83, 4-(1-(difluoromethyl)-6-methyl-1H-indazol-7-yl)-7,7-dimethyl-2-(2-(2-propenoyl)-2,6-diazaspiro[3.4]octan-6-yl)-7,8-dihydro-5H-pyrano[4,3-b]pyridine-3-carbonitrile] | 432
20 | C=CC(=O)N1CC2(CCN(c3nc4c(c(-c5c(C)c(Cl)cc6cn[nH]c56)c3F)COC(C)(C)C4)C2)C1 [Example 14-85] | 56
21 | C=CC(=O)N1CC2(CCN(c3nc4ccccc4c(-c4c(C)c(Cl)cc5cnn(C)c45)c3C#N)C2)C1 [Example 14-90, 4-(5-chloro-1,6-dimethyl-1H-indazol-7-yl)-2-(2-(2-propenoyl)-2,6-diazaspiro[3.4]octan-6-yl)-3-quinolinecarbonitrile] | 148
22 | C=CC(=O)N1CC2(CCN(c3nc4c(c(-c5ccc(F)c6sc(N)c(C#N)c56)c3C)COC(C)(C)C4)C2)C1 [Example 14-106, 2-amino-7-fluoro-4-(3,7,7-trimethyl-2-(2-(2-propenoyl)-2,6-diazaspiro[3.4]octan-6-yl)-7,8-dihydro-5H-pyrano[4,3-b]pyridin-4-yl)-1-benzothiophene-3-carbonitrile] | 46
23 | C=CC(=O)N1CC2(CCN(c3nc4cc(-c5scnc5C)ccc4c(-c4ccccc4Cl)c3C)C2)C1 [Example 15-2, 1-(6-(4-(2-chlorophenyl)-3-methyl-7-(4-methyl-1,3-thiazol-5-yl)-2-quinolinyl)-2,6-diazaspiro[3.4]octan-2-yl)-2-propen-1-one] | 478
24 | C=CC(=O)N1CC2(CCN(c3nc4cc(-n5ccnc5C)ccc4c(-c4ccccc4Cl)c3C)C2)C1 [Example 15-4, 1-(6-(4-(2-chlorophenyl)-3-methyl-7-(2-methyl-1H-imidazol-1-yl)-2-quinolinyl)-2,6-diazaspiro[3.4]octan-2-yl)-2-propen-1-one] | 280
25 | C=CC(=O)N1CC2(CCN(c3nc4cc(-c5ccnn5C)ccc4c(-c4ccc(F)cc4F)c3C)C2)C1 [Example 16-6, 1-(6-(4-(2,4-difluorophenyl)-3-methyl-7-(1-methyl-1H-pyrazol-5-yl)-2-quinolinyl)-2,6-diazaspiro[3.4]octan-2-yl)-2-propen-1-one] | 708
26 | C=CC(=O)N1CC2(CCN(c3nc4cc(-c5ccnn5C)ccc4c(-c4cc(O)c(F)cc4F)c3C)C2)C1 [Example 16-12, 1-(6-(4-(2,4-difluoro-5-hydroxyphenyl)-3-methyl-7-(1-methyl-1H-pyrazol-5-yl)-2-quinolinyl)-2,6-diazaspiro[3.4]octan-2-yl)-2-propen-1-one] | 488
27 | C=CC(=O)N1CC2(CCN(c3nc4cc(-c5ccnn5C)ccc4c(-c4cc(O)cc(F)c4F)c3C)C2)C1 [Example 16-13, 1-(6-(4-(2,3-difluoro-5-hydroxyphenyl)-3-methyl-7-(1-methyl-1H-pyrazol-5-yl)-2-quinolinyl)-2,6-diazaspiro[3.4]octan-2-yl)-2-propen-1-one] | 368
28 | C=CC(=O)N1CC2(CCN(c3nc4cc(-c5ccnn5C)ccc4c(-c4cc(O)c(F)cc4Cl)c3C)C2)C1 [Example 16-14, 1-(6-(4-(2-chloro-4-fluoro-5-hydroxyphenyl)-3-methyl-7-(1-methyl-1H-pyrazol-5-yl)-2-quinolinyl)-2,6-diazaspiro[3.4]octan-2-yl)-2-propen-1-one] | 373
